Data on three compounds can be found in US11202782B2, “Treatment cancers using a combination comprising PARP inhibitors” (BeiGene, Ltd., priority 2016, dated 2021).

In series [1] the test system is primary human gastric cancer xenograft. The series is described as follows: Tumor growth in primary human gastric cancer xenograft model. The format is in vivo, BALB/c nude mice. The settings on record: paclitaxel 15 mg/kg Q4D×3 i.p.; Compound A 12 mg/kg BID p.o.; not statistically different from vehicle. How it is done:
(§1) Tumor tissues surgically removed from a patient with gastric cancer. Within 2 to 4 hours following patient surgery, small fragments of tumor (3×3×3 mm^3) were subcutaneously engrafted into the scapular area of anesthetized NOD/SCID mice. After tumors grew to around 300-1000 mm^3, tumors were surgically removed and fragments were passaged in NOD/SCID mice by subsequent engraftments. Engraftment in BALB/c nude mice was conducted after 3 successfully passages in NOD/SCID mice. The right axilla region of each BALB/C nude mouse was cleaned with 70% ethanol prior to tumor fragments inoculation. Each animal was implanted subcutaneously with a fragment (around 3×3×3 mm^3) of the gastric cancer in the right flank via 20-gauge trocar needle.
All doses were based on free-base weight.
After implantation, primary tumor volume was measured in two dimensions using a calliper. Tumor volume was calculated using the formula: V=0.5×(a×b^2) where a and b are the long and short diameters of the tumor, respectively. Tumor growth inhibition (TGI) was calculated using the following formula:
[formula] Statistical analysis was conducted using the student T-test. P<0.05 was considered statistically significant.
For orientation: In xenograft studies the graft and the host belong to different species.

For the next series, the system named is PARP1/2. Particulars: disclosed in WO2013/097225A1; cited from earlier work.
Series [2] can be described thus: Particle size distribution of crystalline sesqui-hydrate. The format is physicochemical. How it is done:
Compound A-Crude 2 (5.3 Kg) was mixed with a solution of isopropanol (41.6 Kg) and water (15.9 Kg). The mixture was degassed and re-protected under nitrogen and then heated to 60° C. and stirred for 2-4 h until the solid was dissolved completely. The temperature was raised to 70-80° C. and water (143 Kg) was added. The resulting mixture was heated to the internal temperature of 70-80° C. and then the heating was stopped but stirred gently for 16 h. The precipitate was filtered, washed with water (19 Kg) and slurred with water (21 kg) for 2 h. The resulting solid was filtered, washed with water (20 Kg). The filtered solid was dried at the temperature below 45° C. for 24-36 h. Compound A sesqui-hydrate (4.22 kg) was obtained with particle sizes of D90=51.51 um, D50=18.62 um, D10=7.63 um. This range of PSD is almost ideal for formulation development.

Series [3] concerns Primary tumor cells from a patient with colorectal cancer cultured in Matrigel co-cultured with allogeneic human PBMCs. The series is described as follows: IFN-γ release in primary human tumor cells (Matrigel)/PBMC co-culture with EpCAM×CD3 bispecific T cell engager. The format is cell-based. Particulars: 50 ng/mL EpCAM×CD3 bispecific T cell engager, 72 hours; Compound B 30 nM, Mab-1 1 μg/mL; treatment group divided by control group. As to the method:
After signed the informed consent, healthy human donor's blood was collected and PBMCs were isolated with Ficoll (GE Healthcare, 17-1440-02) according to the manufacturer's protocol with small modification. Briefly, fresh blood was diluted with equivalent volume of 1×DPBS (Gibco®, 14190-144), added equivalent volume of Ficoll into a 50 mL sterile tube, and added diluted blood very carefully onto the surface of the Ficoll. Then centrifuged at 400 g for 40 minutes at room temperature. Carefully removed the upper layer and pipetted the lymphocyte layer to a clean sterile tube, added 3 volumes of 1×DPBS and centrifuge at 200 g for 10 minutes at room temperature. After discarded the supernatant, suspended cells with 10 mL 1×DPBS and washed 2 times more. Suspended cells with 5 mL RPMI-1640 (Gibco®, 22400-089) complete medium (added with 10% fetal bovine serum (Gibco®, 10099-141). […]
Primary tumor cells from a patient with colorectal cancer cultured in Matrigel® were co-cultured with non pre-activated allogeneic human PBMCs, with 50 ng/ml EpCAM×CD3 bispecific T cell engager and with or without an PARP inhibitor named Compound B (30 nM) or an anti-PD-1 antibody named Mab-1 (1 μg/mL), or their combination (named as Mab-1+ Compound B, for short), and cultured for 72 hours. Human IFN-γ in the supernatant of the co-culture system was measured and as the readout (See FIG. 4). […]

Series [4] has as its system primary human SCLC (extensive-stage) xenograft. The experiment in a line: Tumor growth in primary human SCLC (extensive-stage) xenograft model. The format is in vivo, BALB/c nude mice. The settings on record: cohort2, E/C 3 cycles then Compound B 5.45 mg/kg BID for 21 days. As to the method: as §1, with “extensive-stage SCLC.” for “gastric cancer.”, “biopsy, the” for “surgery, small fragments of”, “samples” for “(3×3×3 mm^3)”, “lung” for “gastric”
47 days after implantation, animals bearing tumor were divided to two cohorts, cohort lused smaller tumors for combination setting and cohort 2 used bigger tumors for maintenance setting. In cohort1, animals with mean tumor size of ˜150 mm^3 were assigned into 6 groups with 9 mice per group using a stratified randomization procedure. […]
After implantation, primary tumor volume was measured in two dimensions using a caliper. Tumor volume was calculated using the formula: V=0.5×(a×b^2) where a and b are the long and short diameters of the tumor, respectively. […]
Tumor growth inhibition (TGI) was calculated using the following formula: […]

A short description of series [5]: Body weight and toxicity in primary human SCLC (extensive-stage) xenograft model. Particulars: cohort2, Compound B 5.45 mg/kg BID maintenance. The class given is in vivo, BALB/c nude mice. How it is done: 47 days after implantation, animals bearing tumor were divided to two cohorts, cohort lused smaller tumors for combination setting and cohort 2 used bigger tumors for maintenance setting. In cohort1, animals with mean tumor size of ˜150 mm^3 were assigned into 6 groups with 9 mice per group using a stratified randomization procedure. Mice were then treated with vehicle (0.5% methylcellulose) twice daily (BID) or Compound B at 5.45 mg/kg BID for 21 days, or E/C [etoposide at 12 mg/kg (Day1-3)+carboplatin at 60 mg/kg (Day1) of a 7 day cycle] for 3 cycles then vehicle BID for 21 days (Day22-42), or the combination of E/C with Compound B at 0.68, 1.36 or 2.73 mg/kg BID (Day1-4 of the 7 day cycle) for 3 cycles then Compound B maintenance therapy at 5.45 mg/kg BID for 21 days (Day22-42). In cohort2, animals with mean tumor size of ˜400 mm^3 were treated with E/C for 3 cycles first. At day22, 20 animals were assigned into 2 groups with 10 mice per group using a stratified randomization procedure, then treated with vehicle (0.5% methylcellulose) twice daily (BID) for 21 days (Day22-42), or Compound B maintenance therapy at 5.45 mg/kg BID for 21 days (Day22-42). All doses were based on free-base weight.

Regarding `C[C@]12CCCN1CC1=NNC(=O)c3cc(F)cc4[nH]c2c1c34` [Compound A, (R)-2-fluoro-10a-methyl-7,8,9,10,10a,11-hexahydro-5,6,7a,11-tetraazacyclohepta[def]cyclopenta[a]fluoren-4(5H)-one], the “tumor growth inhibition (TGI) on day 21, single agent” value in series [1] stood at 30%. The PARP1/2 inhibitory activities result in the series on PARP1/2 was “highly selective and potent”.

As to `C[C@]12CCCN1CC1=NNC(=O)c3cc(F)cc4[nH]c2c1c34` [Compound B, (R)-2-fluoro-10a-methyl-7,8,9,10,10a,11-hexahydro-5,6,7a,11-tetraazacyclohepta[def]cyclopenta[a]fluoren-4(5H)-one sesqui-hydrate], in series [2], the “particle size D10” value was 7.63 um, the “particle size D50” value is 18.62 um and the “particle size D90” value was determined as 51.51 um. Further, the “fold changes of IFN-γ” value in series [3] was determined as 1.08. In addition, the “mean tumor volume after maintenance” value in series [4] turned out to be 571 mm^3. For the same compound, the “body weight change during the maintenance phase compared to the E/C treatment group” value in series [5] was “no significant body weight change”.

Regarding `CC(=O)O[C@H]1C(=O)[C@@]2(C)[C@H]([C@H](OC(=O)c3ccccc3)[C@]3(O)C[C@H](OC(=O)[C@H](O)[C@@H](NC(=O)c4ccccc4)c4ccccc4)C(C)=C1C3(C)C)[C@]1(OC(C)=O)CO[C@@H]1C[C@@H]2O` [paclitaxel, reference compound], the “tumor growth inhibition (TGI) on day 21, single agent” value in series [1] was 31%.
